Legend:
[1] = molecular target: T1, GABAA receptor, benzodiazepine (BZD) binding site (rat cortical membrane); assay: radioligand saturation binding, centrifugation separation
T1 construct: native receptor in cortical membrane of male Sprague-Dawley rats

[2] = molecular target: T1, GABAA receptor, benzodiazepine (BZD) binding site (rat cortical membrane); assay: [3H]-flumazenil competition binding; […] used for nonspecific binding
[3] = molecular target: T1, GABAA receptor, benzodiazepine (BZD) binding site (rat cortical membrane); assay: [3H]-flumazenil competition binding

CCOC(=O)c1ncn2c1CN(C)C(=O)c1cc(F)ccc1-2 [[3H]-flumazenil]
Kd [1]: 1.35 ± 0.316 nM

CN1C(=O)CN=C(c2ccccc2)c2cc(Cl)ccc21 [diazepam]
Ki [2]: 1.53 nM

Cc1cc(=O)n2nc(-c3ccccc3)oc2n1 [compound A, 2-phenyl-5-oxo-7-methyl-1,3,4-oxadiazolo[a,2,3]-pyrimidine]
Ki [3]: 1.9 nM

From paper PMC3977056, “Optimum Conditions of Radioligand Receptor Binding Assay of Ligands of Benzodiazepine Receptors” (Iranian Journal of Pharmaceutical Research : IJPR, 2014)
